In patent publication US6358885B1, “Substituted phenylheterocyclic herbicides” (Mississippi State University, priority 1992, dated 2002):

Columns and labels:
sorghum = assay: Test C preemergence/postemergence greenhouse plant response rating 0 to 100; type: in vivo, Sorghum bicolor; details: for Plant response rating, Sorghum: 125 g/ha, 0 to 100 scale
How it was run: (§1)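 Compounds in non-phytotoxic solvent went onto sandy loam before emergence (seeded one day earlier) or onto plants at the one-to-four leaf stage. Duck salad was treated via flood water (~2.5 cm, maintained) over silt loam.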

lambsquarters [1] = assay: Test B preemergence/postemergence greenhouse plant response rating 0 to 10; type: in vivo, Chenopodium album; details: for Plant response rating, Lambsquarter: 0 to 10 scale
How it was run: (§2)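 Test chemicals were sprayed onto freshly planted seed and, concurrently, onto young plants between the one and four leaf stage. After a twelve- to sixteen-day greenhouse period, each species was visually compared with untreated controls.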

soybean [2] = assay: Test C preemergence/postemergence greenhouse plant response rating 0 to 100; type: in vivo, Glycine max; details: for Plant response rating, Soybean: 125 g/ha, 0 to 100 scale
How it was run: as §1

umbrella sedge = assay: Test C flood test plant response rating 0 to 100; type: in vivo, Cyperus difformis
How it was run: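 Compounds in non-phytotoxic solvent applied preemergence to sandy loam one day after planting, postemergence at the 1–4 leaf stage, or to ~2.5 cm floodwater over silt loam.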

cheatgrass = assay: Test B preemergence/postemergence greenhouse plant response rating 0 to 10; type: in vivo, Bromus secalinus; details: for Plant response rating, Cheatgrass: 0 to 10 scale
How it was run: as §2

velvetleaf = assay: as above; type: in vivo, Abutilon theophrasti; details: for Plant response rating, Velvetleaf: 0 to 10 scale
How it was run: as §2

cotton = assay: as above; type: in vivo, Gossypium hirsutum; details: for Plant response rating, Cotton: 0 to 10 scale
How it was run: as §2

morningglory = assay: Test C preemergence/postemergence greenhouse plant response rating 0 to 100; type: in vivo, Ipomoea hederacea; details: for Plant response rating, Morningglory: 125 g/ha, 0 to 100 scale
How it was run: as §1

lambsquarters [3] = assay: as above; type: in vivo, Chenopodium album; details: for Plant response rating Lambsquarters: 125 g/ha, 0 to 100 scale
How it was run: as §1

soybean [4] = assay: Test B preemergence/postemergence greenhouse plant response rating 0 to 10; type: in vivo, Glycine max; details: Rate 50 g/ha, 0 to 10 scale
How it was run: as §2

SMILES: CCOCOc1cc(-c2nn3c(c2Cl)CCCC3)c(F)cc1Cl [Compound 59]
- Plant response rating, Sorghum (sorghum; POSTEMERGENCE): 70
- Plant response rating (0 to 100), Sorghum (sorghum; POSTEMERGENCE, Rate 2 g/ha): 20
- Plant response rating, Sorghum (sorghum; PREEMERGENCE): 20
- Plant response rating (0 to 100), Sorghum (sorghum; PREEMERGENCE, Rate 2 g/ha): 0
- Plant response rating (0 to 100), Sorghum (sorghum; Rate 8 g/ha, POSTEMERGENCE): 40
- Plant response rating (0 to 100), Sorghum (sorghum; Rate 8 g/ha, PREEMERGENCE): 0
- Plant response rating (0 to 100), Sorghum (sorghum; Rate 31 g/ha, POSTEMERGENCE): 60
- Plant response rating (0 to 100), Sorghum (sorghum; Rate 31 g/ha, PREEMERGENCE): 10
- Plant response rating, Lambsquarter (lambsquarters [1]; POSTEMERGENCE, Rate 50 g/ha): 10
- Plant response rating, Lambsquarter (lambsquarters [1]; PREEMERGENCE, Rate 50 g/ha): 10
- Plant response rating (0 to 10 scale), Lambsquarter (lambsquarters [1]; PREEMERGENCE, Rate 200 g/ha): 10
- Plant response rating, Lambsquarter (lambsquarters [1]; Rate 200 g/ha, POSTEMERGENCE): 10
- Plant response rating, Soybean (soybean [2]; POSTEMERGENCE): 70
- Plant response rating (0 to 100), Soybean (soybean [2]; POSTEMERGENCE, Rate 2 g/ha): 30
- Plant response rating, Soybean (soybean [2]; PREEMERGENCE): 0
- Plant response rating (0 to 100), Soybean (soybean [2]; PREEMERGENCE, Rate 2 g/ha): 0
- Plant response rating (0 to 100), Soybean (soybean [2]; Rate 8 g/ha, POSTEMERGENCE): 50
- Plant response rating (0 to 100), Soybean (soybean [2]; Rate 8 g/ha, PREEMERGENCE): 0
- Plant response rating (0 to 100), Soybean (soybean [2]; Rate 31 g/ha, POSTEMERGENCE): 60
- Plant response rating (0 to 100), Soybean (soybean [2]; Rate 31 g/ha, PREEMERGENCE): 0
- Plant response rating (0 to 100), Umbrella sedge (umbrella sedge; POSTEMERGENCE section, flood test, Rate 2 g/ha): 90
- Plant response rating (0 to 100), Umbrella sedge (umbrella sedge; Rate 8 g/ha, under POSTEMERGENCE head (flood test species)): 0
- Plant response rating (0 to 100), Umbrella sedge (umbrella sedge; Rate 31 g/ha, under POSTEMERGENCE head (flood test species)): 0
- Plant response rating Umbrella sedge (umbrella sedge; flood test species listed under POSTEMERGENCE, 125 g/ha, 0 to 100 scale): 0
- Plant response rating, Cheatgrass (cheatgrass; POSTEMERGENCE, Rate 50 g/ha): 4
- Plant response rating, Cheatgrass (cheatgrass; PREEMERGENCE, Rate 50 g/ha): 4
- Plant response rating (0 to 10 scale), Cheatgrass (cheatgrass; PREEMERGENCE, Rate 200 g/ha): 5
- Plant response rating, Cheatgrass (cheatgrass; Rate 200 g/ha, POSTEMERGENCE): 6
- Plant response rating, Velvetleaf (velvetleaf; POSTEMERGENCE, Rate 50 g/ha): 8
- Plant response rating, Velvetleaf (velvetleaf; PREEMERGENCE, Rate 50 g/ha): 10
- Plant response rating (0 to 10 scale), Velvetleaf (velvetleaf; PREEMERGENCE, Rate 200 g/ha): 10
- Plant response rating, Velvetleaf (velvetleaf; Rate 200 g/ha, POSTEMERGENCE): 10
- Plant response rating, Cotton (cotton; POSTEMERGENCE, Rate 50 g/ha): 10
- Plant response rating, Cotton (cotton; PREEMERGENCE, Rate 50 g/ha): 4
- Plant response rating (0 to 10 scale), Cotton (cotton; PREEMERGENCE, Rate 200 g/ha): 7
- Plant response rating, Cotton (cotton; Rate 200 g/ha, POSTEMERGENCE): 10
- Plant response rating, Morningglory (morningglory; POSTEMERGENCE): 85
- Plant response rating (0 to 100), Morningglory (morningglory; POSTEMERGENCE, Rate 2 g/ha): 70
- Plant response rating, Morningglory (morningglory; PREEMERGENCE): 10
- Plant response rating (0 to 100), Morningglory (morningglory; PREEMERGENCE, Rate 2 g/ha): 0
- Plant response rating (0 to 100), Morningglory (morningglory; Rate 8 g/ha, POSTEMERGENCE): 70
- Plant response rating (0 to 100), Morningglory (morningglory; Rate 8 g/ha, PREEMERGENCE): 0
- Plant response rating (0 to 100), Morningglory (morningglory; Rate 31 g/ha, POSTEMERGENCE): 85
- Plant response rating (0 to 100), Morningglory (morningglory; Rate 31 g/ha, PREEMERGENCE): 10
- Plant response rating Lambsquarters (lambsquarters [3]; POSTEMERGENCE): 95
- Plant response rating (0 to 100), Lambsquarters (lambsquarters [3]; POSTEMERGENCE, Rate 2 g/ha): 30
- Plant response rating Lambsquarters (lambsquarters [3]; PREEMERGENCE): 100
- Plant response rating (0 to 100), Lambsquarters (lambsquarters [3]; PREEMERGENCE, Rate 2 g/ha): 0
- Plant response rating (0 to 100), Lambsquarters (lambsquarters [3]; Rate 8 g/ha, POSTEMERGENCE): 70
- Plant response rating (0 to 100), Lambsquarters (lambsquarters [3]; Rate 8 g/ha, PREEMERGENCE): 95
- Plant response rating (0 to 100), Lambsquarters (lambsquarters [3]; Rate 31 g/ha, POSTEMERGENCE): 85
- Plant response rating (0 to 100), Lambsquarters (lambsquarters [3]; Rate 31 g/ha, PREEMERGENCE): 100
- Plant response rating, Soybean (soybean [4]; POSTEMERGENCE): 8
- Plant response rating, Soybean (soybean [4]; PREEMERGENCE): 0
